# Tests used:
# [1] = tested on: purple nutsedge; experiment: Test B pre/postemergence purple nutsedge; format: in vivo, Cyperus rotundus; settings: for Plant response rating, Nutsedge: scale of 0 to 10 where 0 is no effect and 10 is complete control
# Method in brief: (§1)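 Response is a visual 0-to-10 score relative to untreated plants, where 0 means no effect and 10 means complete control, taken twelve to sixteen days after application. Treatments went onto soil at planting and onto foliage of 1- to 4-leaf plants, using a surfactant-containing non-phytotoxic solvent.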
# [2] = tested on: rice; experiment: Test B flood test rice; format: in vivo, Oryza sativa
# Method in brief: (§2)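 Flood test on plants grown to the 2-leaf stage; treated plants kept in greenhouse twelve to sixteen days, then visually rated against controls on a 0 (no effect) to 10 (complete control) scale.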
# [3] = tested on: velvetleaf; experiment: Test B pre/postemergence velvetleaf; format: in vivo, Abutilon theophrasti; settings: for Plant response rating, Velvetleaf: scale of 0 to 10 where 0 is no effect and 10 is complete control
# Method in brief: as §1
# [4] = tested on: wild oat; experiment: Test B pre/postemergence wild oat; format: in vivo, Avena fatua; settings: for Plant response rating, Wild oats: scale of 0 to 10 where 0 is no effect and 10 is complete control
# Method in brief: as §1
# [5] = tested on: pigweed; experiment: Test B pre/postemergence pigweed; format: in vivo, Amaranthus retroflexus; settings: for Plant response rating, Redroot pigweed: scale of 0 to 10 where 0 is no effect and 10 is complete control
# Method in brief: as §1
# [6] = tested on: cocklebur; experiment: Test B pre/postemergence cocklebur; format: in vivo, Xanthium strumarium; settings: for Plant response rating, Cocklebur: scale of 0 to 10 where 0 is no effect and 10 is complete control
# Method in brief: as §1
# [7] = tested on: morningglory; experiment: Test B pre/postemergence morningglory; format: in vivo, Ipomoea hederacea; settings: for Plant response rating, Morningglory: scale of 0 to 10 where 0 is no effect and 10 is complete control
# Method in brief: as §1
# [8] = tested on: duck salad; experiment: Test B flood test duck salad; format: in vivo, Heteranthera limosa
# Method in brief: as §2
# [9] = tested on: corn; experiment: Test B pre/postemergence corn; format: in vivo, Zea mays; settings: for Plant response rating, Corn: scale of 0 to 10 where 0 is no effect and 10 is complete control
# Method in brief: as §1
# [10] = tested on: wheat; experiment: Test B pre/postemergence wheat; format: in vivo, Triticum aestivum; settings: for Plant response rating, Wheat: scale of 0 to 10 where 0 is no effect and 10 is complete control
# Method in brief: as §1
# [11] = tested on: bamyardgrass; experiment: Test B flood test barnyardgrass; format: in vivo, Echinochloa crus-galli
# Method in brief: as §2
# [12] = tested on: sugar beet; experiment: Test B pre/postemergence sugar beet; format: in vivo, Beta vulgaris; settings: for Plant response rating, Sugarbeets: scale of 0 to 10 where 0 is no effect and 10 is complete control
# Method in brief: as §1
# [13] = tested on: giant foxtail; experiment: Test B pre/postemergence giant foxtail; format: in vivo, Setaria faberii; settings: for Plant response rating, Giant foxtail: scale of 0 to 10 where 0 is no effect and 10 is complete control
# Method in brief: as §1
# [14] = tested on: crabgrass; experiment: Test B pre/postemergence crabgrass; format: in vivo, Digitaria sanguinalis; settings: for Plant response rating, Crabgrass: scale of 0 to 10 where 0 is no effect and 10 is complete control
# Method in brief: as §1
# [15] = tested on: rape; experiment: Test B pre/postemergence rape; format: in vivo, Brassica napus; settings: for Plant response rating, Rape: scale of 0 to 10 where 0 is no effect and 10 is complete control
# Method in brief: as §1
# [16] = tested on: soybean; experiment: Test B pre/postemergence soybean; format: in vivo, Glycine max; settings: for Plant response rating, Soybean: scale of 0 to 10 where 0 is no effect and 10 is complete control
# Method in brief: as §1
# [17] = Postemergence, Rate 31 g/ha, visual rating, scale 0 to 10 (0 no effect, 10 complete control)
# [18] = Postemergence, Rate 250 g/ha, scale 0 to 10
# [19] = Preemergence, Rate 250 g/ha, scale 0 to 10, 0 is no effect, 10 is complete control
# [20] = Rate 62 g/ha, Postemergence, scale 0 to 10 (0 no effect, 10 complete control)
# [21] = Rate 125 g/ha, Postemergence, scale 0 to 10, 0 is no effect, 10 is complete control
# [22] = Rate 31 g/ha, Pre-emergence section (flood test species), scale 0 to 10
# [23] = Rate 62 g/ha, flood test species, Pre-emergence, visual evaluation after twelve to sixteen days
# [24] = Rate 125 g/ha, under heading Pre-emergence, flood test species, visual evaluation after twelve to sixteen days
# [25] = Rate 250 g/ha, Pre-emergence (flood test species), scale 0 to 10, 0 is no effect, 10 is complete control
# [26] = Preemergence, Rate 31 g/ha, visual rating, scale 0 to 10 (0 no effect, 10 complete control)
structure (smiles),measurement,setting,value
CC(C)N(C(=O)n1oc(=O)n(CC2=NOCCC2)c1=O)c1ccc(Cl)cc1 [Compound 450],Nutsedge plant response rating,[1]; [17],0
same,Nutsedge plant response rating,[1]; [18],0
same,"Plant response rating, Nutsedge","[1]; Preemergence, Rate 62 g/ha",0
same,"Plant response rating, Nutsedge","[1]; Preemergence, Rate 125 g/ha",0
same,Nutsedge plant response rating,[1]; [19],0
same,Nutsedge plant response rating,[1]; [20],0
same,Nutsedge plant response rating,[1]; [21],0
same,Rice plant response rating,[2]; [22],0
same,"Plant response rating, Rice (0 to 10 scale, 0 is no effect, 10 is complete control)",[2]; [23],0
same,"Rice plant response rating (0 to 10 scale, 0 is no effect, 10 is complete control)",[2]; [24],0
same,Rice plant response rating,[2]; [25],0
same,Velvetleaf plant response rating,[3]; [17],0
same,Velvetleaf plant response rating,[3]; [18],2
same,"Plant response rating, Velvetleaf","[3]; Preemergence, Rate 62 g/ha",0
same,"Plant response rating, Velvetleaf","[3]; Preemergence, Rate 125 g/ha",0
same,Velvetleaf plant response rating,[3]; [19],0
same,Velvetleaf plant response rating,[3]; [20],0
same,Velvetleaf plant response rating,[3]; [21],Velvetleaf 0
same,Wild oats plant response rating,[4]; [17],0
same,Wild oats plant response rating,[4]; [18],0
same,"Plant response rating, Wild oats","[4]; Preemergence, Rate 62 g/ha",0
same,"Plant response rating, Wild oats","[4]; Preemergence, Rate 125 g/ha",0
same,Wild oats plant response rating,[4]; [19],0
same,Wild oats plant response rating,[4]; [20],0
same,Wild oats plant response rating,[4]; [21],0
same,Redroot pigweed plant response rating,[5]; [17],0
same,Redroot pigweed plant response rating,[5]; [18],0
same,"Plant response rating, Redroot pigweed","[5]; Preemergence, Rate 62 g/ha",0
same,"Plant response rating, Redroot pigweed","[5]; Preemergence, Rate 125 g/ha",4
same,Redroot pigweed plant response rating,[5]; [19],7
same,Redroot pigweed plant response rating,[5]; [20],0
same,Redroot pigweed plant response rating,[5]; [21],0
same,Cocklebur plant response rating,[6]; [17],0
same,Cocklebur plant response rating,[6]; [18],0
same,Cocklebur plant response rating,[6]; [26],0
same,"Plant response rating, Cocklebur","[6]; Preemergence, Rate 62 g/ha",0
same,"Plant response rating, Cocklebur","[6]; Preemergence, Rate 125 g/ha",0
same,Cocklebur plant response rating,[6]; [19],0
same,Cocklebur plant response rating,[6]; [20],0
same,Cocklebur plant response rating,[6]; [21],0
same,Morningglory plant response rating,[7]; [17],0
same,Morningglory plant response rating,[7]; [18],1
same,"Plant response rating, Morningglory","[7]; Preemergence, Rate 62 g/ha",0
same,"Plant response rating, Morningglory","[7]; Preemergence, Rate 125 g/ha",0
same,Morningglory plant response rating,[7]; [19],0
same,Morningglory plant response rating,[7]; [20],0
same,Morningglory plant response rating,[7]; [21],0
same,Ducksalad plant response rating,[8]; [22],0
same,"Plant response rating, Ducksalad (0 to 10 scale, 0 is no effect, 10 is complete control)",[8]; [23],0
same,"Ducksalad plant response rating (0 to 10 scale, 0 is no effect, 10 is complete control)",[8]; [24],0
same,Ducksalad plant response rating,[8]; [25],0
same,Corn plant response rating,[9]; [17],0
same,Corn plant response rating,[9]; [18],0
same,Corn plant response rating,[9]; [26],0
same,"Plant response rating, Corn","[9]; Preemergence, Rate 62 g/ha",0
same,"Plant response rating, Corn","[9]; Preemergence, Rate 125 g/ha",0
same,Corn plant response rating,[9]; [19],0
same,Corn plant response rating,[9]; [20],0
same,Corn plant response rating,[9]; [21],0
same,Wheat plant response rating,[10]; [17],0
same,Wheat plant response rating,[10]; [18],0
same,"Plant response rating, Wheat","[10]; Preemergence, Rate 62 g/ha",0
same,"Plant response rating, Wheat","[10]; Preemergence, Rate 125 g/ha",0
same,Wheat plant response rating,[10]; [19],0
same,Wheat plant response rating,[10]; [20],0
same,Wheat plant response rating,[10]; [21],0
same,Barnyardgrass plant response rating,[11]; [22],0
same,"Plant response rating, Barnyardgrass (0 to 10 scale, 0 is no effect, 10 is complete control)",[11]; [23],0
same,"Barnyardgrass plant response rating (0 to 10 scale, 0 is no effect, 10 is complete control)",[11]; [24],0
same,Barnyardgrass plant response rating,[11]; [25],0
same,Sugarbeets plant response rating,[12]; [17],0
same,Sugarbeets plant response rating,[12]; [18],0
same,"Plant response rating, Sugarbeets","[12]; Preemergence, Rate 62 g/ha",0
same,"Plant response rating, Sugarbeets","[12]; Preemergence, Rate 125 g/ha",0
same,Sugarbeets plant response rating,[12]; [19],0
same,Sugarbeets plant response rating,[12]; [20],0
same,Sugarbeets plant response rating,[12]; [21],0
same,Giant foxtail plant response rating,[13]; [17],0
same,Giant foxtail plant response rating,[13]; [18],7
same,Giant foxtail plant response rating,[13]; [26],0
same,"Plant response rating, Giant foxtail","[13]; Preemergence, Rate 62 g/ha",2
same,"Plant response rating, Giant foxtail","[13]; Preemergence, Rate 125 g/ha",8
same,Giant foxtail plant response rating,[13]; [19],9
same,Giant foxtail plant response rating,[13]; [20],2
same,Giant foxtail plant response rating,[13]; [21],5
same,Crabgrass plant response rating,[14]; [17],0
same,Crabgrass plant response rating,[14]; [18],4
same,Crabgrass plant response rating,[14]; [26],0
same,"Plant response rating, Crabgrass","[14]; Preemergence, Rate 62 g/ha",2
same,"Plant response rating, Crabgrass","[14]; Preemergence, Rate 125 g/ha",7
same,Crabgrass plant response rating,[14]; [19],8
same,Crabgrass plant response rating,[14]; [20],0
same,Crabgrass plant response rating,[14]; [21],2
same,Rape plant response rating,[15]; [17],0
same,Rape plant response rating,[15]; [18],0
same,"Plant response rating, Rape","[15]; Preemergence, Rate 62 g/ha",0
same,"Plant response rating, Rape","[15]; Preemergence, Rate 125 g/ha",0
same,Rape plant response rating,[15]; [19],0
same,Rape plant response rating,[15]; [20],0
same,Rape plant response rating,[15]; [21],0
same,Soybean plant response rating,[16]; [17],0
same,Soybean plant response rating,[16]; [18],1
same,"Plant response rating, Soybean","[16]; Preemergence, Rate 62 g/ha",0
same,"Plant response rating, Soybean","[16]; Preemergence, Rate 125 g/ha",0
same,Soybean plant response rating,[16]; [19],3
same,Soybean plant response rating,[16]; [20],1
same,Soybean plant response rating,[16]; [21],1

# Source: patent publication US6737383B1, “Herbicidal oxadiazolidines” (priority 1999, dated 2004)
